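Step 1: Grow cells in 96-well plates. Step 2: Expose to compound for 48 hours at 5 concentrations. Step 3: Interpolate endpoints linearly; if unreached, use highest concentration. Here, GI50 denotes the concentration required for 50% inhibition of growth.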 The source made the active and inactive calls. No stated cut-off is given here; in the data, active = GI50 up to about 1.1 µM and inactive = higher.
Tests used:
Experiment in all cases: growth of human tumour cells (NCI), 48 h
786-0 = tested on: 786-0
A498 = tested on: A498
A549 = tested on: A549
ACHN = tested on: ACHN
CAKI-1 = tested on: CAKI-1
CCRF-CEM = tested on: CCRF-CEM
COLO 205 = tested on: COLO 205
DLD-1 = tested on: DLD-1
DMS-114 = tested on: DMS-114
DMS-273 = tested on: DMS-273
HCC 2998 = tested on: HCC 2998
HCT-116 = tested on: HCT-116
HCT-15 = tested on: HCT-15
HL-60 = tested on: HL-60
HOP-18 = tested on: HOP-18
HOP-62 = tested on: HOP-62
HOP-92 = tested on: HOP-92
HT-29 = tested on: HT-29
IGROV-1 = tested on: IGROV-1
K562 = tested on: K562
KM-20L2 = tested on: KM-20L2
KM12 = tested on: KM12
LOX IMVI = tested on: LOX IMVI
LXFL 529 = tested on: LXFL 529
M14 = tested on: M14
M19-MEL = tested on: M19-MEL
MOLT-4 = tested on: MOLT-4
Malme-3M = tested on: Malme-3M
NCI-H226 = tested on: NCI-H226
NCI-H23 = tested on: NCI-H23
NCI-H460 = tested on: NCI-H460
NCI-H522 = tested on: NCI-H522
OVCAR-3 = tested on: OVCAR-3
OVCAR-4 = tested on: OVCAR-4
OVCAR-5 = tested on: OVCAR-5
OVCAR-8 = tested on: OVCAR-8
RPMI-8226 = tested on: RPMI-8226
RXF 393 = tested on: RXF 393
SF-268 = tested on: SF-268
SF-295 = tested on: SF-295
SF-539 = tested on: SF-539
SK-MEL-28 = tested on: SK-MEL-28
SK-MEL-2 = tested on: SK-MEL-2
SK-MEL-5 = tested on: SK-MEL-5
SK-OV-3 = tested on: SK-OV-3
SN12C = tested on: SN12C
SNB-19 = tested on: SNB-19
SNB-75 = tested on: SNB-75
SNB-78 = tested on: SNB-78
SR = tested on: SR
SW-620 = tested on: SW-620
TK-10 = tested on: TK-10
U-251 = tested on: U-251
UACC-257 = tested on: UACC-257
UACC-62 = tested on: UACC-62
UO-31 = tested on: UO-31

In the case of `N=C(N)C1=C(O)NC(=O)N(C2CCCCC2)C1`, the GI50 (786-0) is reported as > 100 µM (inactive), the GI50 (A498) is reported as > 100 µM (inactive) and the GI50 (A549) is reported as > 100 µM (inactive). The GI50 (ACHN) was > 100 µM (inactive), the GI50 (CAKI-1) was > 100 µM (inactive) and the GI50 (CCRF-CEM) was > 100 µM (inactive). The GI50 (COLO 205) was > 100 µM (inactive), the GI50 (DLD-1) was > 100 µM (inactive) and the GI50 (DMS-114) was > 100 µM (inactive). The GI50 (DMS-273) was > 100 µM (inactive), the GI50 (HCC 2998) was > 100 µM (inactive) and the GI50 (HCT-116) was > 100 µM (inactive). For the same compound, the GI50 (HCT-15) was greater than 100 µM, the GI50 (HL-60) was > 100 µM (inactive) and the GI50 (HOP-18) was > 100 µM (inactive). The GI50 (HOP-62) was > 100 µM (inactive), the GI50 (HOP-92) was > 100 µM (inactive) and the GI50 (HT-29) was > 100 µM (inactive). The GI50 (IGROV-1) was > 100 µM (inactive), the GI50 (K562) was > 100 µM (inactive) and the GI50 (KM-20L2) was > 100 µM (inactive). For the same compound, the GI50 (KM12) was > 100 µM (inactive), the GI50 (LOX IMVI) was > 100 µM (inactive) and the GI50 (LXFL 529) was > 100 µM (inactive). For the same compound, the GI50 (M14) was > 100 µM (inactive), the GI50 (M19-MEL) was > 100 µM (inactive) and the GI50 (MOLT-4) was > 100 µM (inactive). For the same compound, the GI50 (Malme-3M) was > 100 µM (inactive), the GI50 (NCI-H226) was > 100 µM (inactive) and the GI50 (NCI-H23) was > 100 µM (inactive). The GI50 (NCI-H460) was > 100 µM (inactive), the GI50 (NCI-H522) was > 100 µM (inactive) and the GI50 (OVCAR-3) was > 100 µM (inactive). For the same compound, the GI50 (OVCAR-4) was > 100 µM (inactive), the GI50 (OVCAR-5) was > 100 µM (inactive) and the GI50 (OVCAR-8) was > 100 µM (inactive). The GI50 (RPMI-8226) was > 100 µM (inactive), the GI50 (RXF 393) was > 100 µM (inactive) and the GI50 (SF-268) was > 100 µM (inactive). The GI50 (SF-295) was > 100 µM (inactive), the GI50 (SF-539) was > 100 µM (inactive) and the GI50 (SK-MEL-28) was > 100 µM (inactive). The GI50 (SK-MEL-2) was > 100 µM (inactive), the GI50 (SK-MEL-5) was > 100 µM (inactive) and the GI50 (SK-OV-3) was > 100 µM (inactive). The GI50 (SN12C) was > 100 µM (inactive), the GI50 (SNB-19) was > 100 µM (inactive) and the GI50 (SNB-75) was > 100 µM (inactive). The GI50 (SNB-78) was > 100 µM (inactive), the GI50 (SR) was > 100 µM (inactive) and the GI50 (SW-620) was > 100 µM (inactive). For the same compound, the GI50 (TK-10) was > 100 µM (inactive), the GI50 (U-251) was > 100 µM (inactive) and the GI50 (UACC-257) was > 100 µM (inactive). For the same compound, the GI50 (UACC-62) was > 100 µM (inactive) and the GI50 (UO-31) was > 100 µM (inactive).

— ChEMBL document CHEMBL1201862, “PubChem BioAssay data set” (2004)
